Test system: Δ 4,5 glycuronidase
Assay: Δ 4,5 glycuronidase activity (loss of UV absorption at 232 nm)
Format: biochemical, F. heparinum
Conditions: 2 mM substrate, 250 nM Δ 4,5 enzyme alone, 30° C.
Experimental: The substrate-product relationship between the two enzymes was examined by directly measuring Δ 4,5 glycuronidase activity either before or following the addition of recombinant 2-O sulfatase. Reactions were carried out at 30° C. and included 50 mM MES, pH 6.5, 100 mM NaCl, and 2 mM ΔU2SHNS in a 100 μL reaction volume. In these experiments, 250 nM Δ 4,5 glycuronidase and 25 nM 2-O ΔN^1-24 were sequentially added as follows: Δ 4,5 alone, Δ 4,5 followed by 2-O sulfatase, or 2-O sulfatase followed by Δ 4,5.
We hypothesized that, an obligatory substrate-product relationship between the 2-O sulfatase and the Δ 4,5 glycuronidase may exist. We examined a possible kinetic relationship between these two enzymes by looking at their sequential action (FIG. 7). In this experiment, Δ 4,5 glycuronidase activity was measured directly either […] or following the addition of the recombinant 2-O sulfatase using the disaccharide substrate ΔU2SHNS. […] In the reciprocal experiment (i.e., whereby the 2-O sulfatase was added second), we observed an initial lag in Δ 4,5 activity. This lag was followed by a linear Δ 4,5 activity, albeit at a slower rate than in the case where the 2-O sulfatase was added first. The observed delay in activity was presumably due to the prerequisite 2-O desulfation of the substrate which must occur prior to being acted on by the glycuronidase.

With O=C(O)C1=C[C@H](O)[C@@H](OS(=O)(=O)O)[C@H](O[C@H]2[C@H](O)[C@@H](NS(=O)(=O)O)C(O)O[C@@H]2CO)O1 (stereo partly shown) [ΔU2SHNS] the glycuronidase-mediated hydrolysis was “completely refractory”.

From patent US7429474B2, “2-O sulfatase compositions and methods of analyzing therewith” (Massachusetts Institute of Technology, priority 2003, dated 2008)
